Among the data in ChEMBL document CHEMBL3259634, “Novel benzopolycyclic amines with NMDA receptor antagonist activity” (Bioorg Med Chem, 2014) are IC50 values, retold here.

The assay has as its target Glutamate NMDA receptor. The experiment in a line: Antagonist activity at NMDA receptor in primary culture of rat cerebellar granule neurons assessed as inhibition of NMDA-induced intracellular calcium level by fluorescence spectrophotometric analysis. In kind it is cell-based. In general terms: A change in cytosolic calcium serves as a functional read-out for many receptors and channels.

pIC50: −log10 of the molar value.

Broadly, the pIC50 is the negative decadic logarithm of the IC50, by convention in mol/L. `NC12CC3CC(O)(CC(C1)c1ccccc13)C2`: the pIC50 is 4.79.

As to `CN(C)C12CC3CC(O)(CC(C1)c1ccccc13)C2`, the pIC50 was 4.15.

Take `NC12CC3CC(F)(CC(C1)c1ccccc13)C2`: the negative logarithm of the IC50 (pIC50) is 5.71.

On to `CN(C)C12CC3CC(F)(CC(C1)c1ccccc13)C2`, for which the pIC50 was 4.78.

As for `COC12CC3CC(N)(CC(C1)c1ccccc13)C2`, the pIC50 is 4.61.

Turning to `NC12CC3CC(C1)c1ccccc1C(C3)C2`, the pIC50 was 6.15.

Regarding `CN(C)C12CC3CC(C1)c1ccccc1C(C3)C2`, the pIC50 is 5.64.
